Experimental findings from PubChem BioAssay (NCI) are described below.

Structures are written as SMILES. Several values for one entry are separate records, joined by “and”; a condition that tells them apart may be missing. Equal entries are not always repeated.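 Briefly, cells in 96-well plates were exposed to five compound concentrations for 48 h, and endpoints were estimated by linear interpolation. Here, GI50 denotes the concentration required for 50% inhibition of growth. TGI: total growth inhibition.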

The assay has as its system MDA-MB-468 breast. Put plainly: NCI anticancer screen, dose series, 48 h.
`CCC(CC)n1cnc2c(-c3cnc(N)cn3)nc(N3CC4CCC(C3)O4)nc21`: the GI50 is 0.189 µM and the TGI amounted to 2.81 µM.
With `O=C1c2c(c(=O)[nH]c3ccccc23)[C@H](c2ccccc2)[C@@H]2CCCN12`, the GI50 is 2.92 µM and the TGI came out at 14.3 µM.
Turning to `CC1COc2c(N3CCN(C)CC3)c(F)cc3c(=O)c(C(=O)N/N=C/c4cc[nH]c4)cn1c23` (centres undefined), the GI50 was 0.412 µM and the TGI stood at 1.73 µM.
With `NC(=S)N/N=C/c1ccc(OC(=O)COc2cc(Cl)c(Cl)cc2Cl)cn1`, the GI50 was 2.41 µM and the TGI was found to be 8.71 µM.
Turning to `Cc1c(Cn2c(C)nc3c(C(=O)O)cc(N4CCOCC4)cc32)cccc1C(F)(F)F`, the GI50 is 26.7 µM and the TGI is above 100 µM.
As to `CCOC(=O)c1[nH]c2cc(Cl)ccc2c1[C@@H](C(=O)NC(C)(C)C)N(CC)C(=O)CCCCC#Cc1cccc2c1CN(C1CCC(=O)NC1=O)C2=O` (some centres undefined), the GI50 was below 0.01 µM and the TGI is below 0.0142 µM.
Consider `Cc1cc2c(F)c(Oc3ncnc(Nc4ccc(N5C[C@@H](C)N[C@@H](C)C5)cc4)c3C#N)cc(F)c2[nH]1`, for which the GI50 is 2.05 µM and the TGI turned out to be 4.75 µM.
With `C(=N\Nc1ncc(-c2cc3cc4c(cc3o2)OCO4)s1)/c1ccco1`, the GI50 is 2.14 µM and the TGI turned out to be 7.14 µM.
For the molecule `CC1=C([Te]c2ccccc2)C(=O)c2ccccc2C1=O`, the GI50 is 0.442 µM and the TGI was found to be 2.12 µM.
As to `Fc1cccc(COc2ccc(Nc3ncnc4onc(-c5ccccc5)c34)cc2)c1`, the GI50 is 0.116 µM and the TGI amounted to 2.16 µM.
Take `COc1ccc(Nc2nc(NCCNc3ccnc4cc(Cl)ccc34)nc(N3CCOCC3)n2)cc1`: the GI50 is 1.62 µM and the TGI was 4.03 µM.
Take `Cn1ncc(Cl)c1-c1cc(C(=O)N[C@H](CN)Cc2cccc(F)c2)sc1Cl`: the GI50 is 0.0387 µM and 0.092 µM; the TGI is 0.582 µM and 1.39 µM.
`COc1cnc2c(c1)C(=O)c1c-2n(CCCN2CCCC2)c(=O)c2cc([N+](=O)[O-])ccc12`: the GI50 is 0.0271 µM and the TGI was found to be 1.03 µM.
In the case of `CN(C)c1ccc(/C=N/NC(N)=S)nc1`, the GI50 is 2.21 µM and the TGI was found to be 8.41 µM.
For `C=C(C)[C@@H]1CC[C@]2(CO)CC[C@]3(C)[C@H](CC[C@@H]4[C@@]5(C)CCCNC(C)(C)[C@@H]5CC[C@]43C)[C@@H]12`, the GI50 is 1.66 µM and the TGI was determined as 3.38 µM.
Regarding `Nc1ncc(-c2ccc3ncnc(Nc4cccc(Cl)c4)c3c2)cn1`, the GI50 was 0.0565 µM and the TGI came out at 0.378 µM.
With `COc1ccc2c(c1)c(-c1nc(-c3cn(C)c4ccncc34)cs1)cn2C`, the GI50 was 1.62 µM and the TGI is 3.2 µM.
Turning to `COc1cc2nc(Nc3cccc(Cl)c3)nc(N)c2cc1OC`, the GI50 was 4.37 µM and the TGI stood at 17.3 µM.
`COc1ccc(-c2ncnc3c2ncn3CC#CCCl)cc1`: the GI50 was 2.37 µM and the TGI worked out at 7.29 µM.
Regarding `CC(=O)O.CN1[CH-]N(Cc2ccc(C#N)cc2)c2ccccc21.[Ag+]`, the GI50 was 12.8 µM and the TGI turned out to be 28.5 µM.
The corresponding values for `COC(=O)/C=C1/SC(=Nc2cccc(Cl)c2)N(CCc2c[nH]c3ccc(O)cc23)C1=O` are 1.99 µM and 4.4 µM.
Take `COc1ccc(Br)cc1NC(=O)Nc1cccc2c1ccn2Cc1ccnc(N)c1`: the GI50 was 2.85 µM and 4.54 µM; the TGI is 12 µM and > 10 µM.
`COc1cc2nc(N3CCCN(C)CC3)nc(NC3CCN(Cc4ccccc4)CC3)c2cc1OC`: the GI50 is 1.5 µM and the TGI turned out to be 3.19 µM.
`Cc1c(CN2CCN(C(=O)[C@H](C)O)CC2)sc2c(N3CCOCC3)nc(-c3cnc(N)nc3)nc12`: the GI50 is 0.124 µM and 0.0793 µM; the TGI was 1.14 µM and 0.456 µM.
Regarding `CN1C(=O)CCC(N2C(=O)c3cccc(NCCOCCOCCNC(=O)c4cc5c(o4)C(=O)c4ccccc4C5=O)c3C2=O)C1=O` (centres undefined), the GI50 was 1.76 µM and the TGI came to 5.04 µM.
On to `C[C@@H]1C[C@H](N)C[C@H](c2ccncc2NC(=O)c2ccc(F)c(-c3c(F)cccc3F)n2)C1`, for which the GI50 was 4.16 µM and 2.91 µM; the TGI was 18.3 µM and > 10 µM.
For `O=S(=O)(N=C1C(Cl)=C(Cl)C(=NS(=O)(=O)c2ccccc2)C(Cl)=C1Cl)c1ccccc1`, the GI50 was 15.1 µM and the TGI came to 35.9 µM.
On to `COc1cc(-c2nn(-c3cccc(NC(=O)Nc4ccc(Cl)c(C(F)(F)F)c4)c3)cc2-c2ccncc2)ccc1Cl`, for which the GI50 is 0.833 µM and the TGI was 4.42 µM.
Consider `Cc1ccc2c(C(C[N+](=O)[O-])c3ccccc3)c(-c3ccccc3)[nH]c2c1` (centres undefined), for which the GI50 was 12.7 µM and the TGI was above 95 µM.
`CCCc1nn(C)c2c(=O)[nH]c(-c3cc(S(=O)(=O)N4CCN(C)CC4)ccc3OCC)nc12`: the GI50 was 35 µM and the TGI was above 100 µM.
With `Cc1ccc(CNc2ccc3nc(CCC4CCCCC4)[nH]c3c2)cc1`, the GI50 is 1.52 µM and the TGI was 3.35 µM.
With `COc1ccc(C(C)=C(c2ccc(OCCN3CCCCCC3)cc2)c2ccc(OCCN3CCCCCC3)cc2)cc1`, the GI50 is 0.806 µM and the TGI is 3.05 µM.
The corresponding values for `CCOC(=O)C(=Cc1ccc(C#N)cc1)C(=O)OCC` are 1.98 µM and 3.84 µM.
As to `CC1(C)N=C(N)N=C(N)N1c1ccc(CNC(=O)Nc2ccc(S(=O)(=O)F)c(Cl)c2)c(Cl)c1`, the GI50 was 0.689 µM and the TGI is above 100 µM.
With `COc1cc(CCC[P+](c2ccccc2)(c2ccccc2)c2ccccc2)c(OC)c2c1OCO2`, the GI50 was 0.292 µM and the TGI is 0.95 µM.
`COC[C@H](NC(=O)c1cnc(C)s1)C(=O)N[C@@H](COC)C(=O)N[C@@H](Cc1ccccc1)C(=O)[C@@]1(C)CO1`: the GI50 is 14.8 µM and the TGI amounted to 38.1 µM.
As to `CCN1CCN(CCNc2nccc(-c3c(-c4ccc(F)c(O)c4)nc4occn34)n2)S1(=O)=O`, the GI50 is 4.53 µM and the TGI was above 100 µM.
